According to the NIST ThermoML archive (doi:10.1016/j.fluid.2016.03.013):

Assay: xn = mol fraction of the nth substance listed
Settings: for surface tension liquid-gas / mass density: draining crucible method; for viscosity / mass density: 101 kPa, Liquid; for viscosity: Draining crucible

[Al] [aluminum] + [Zn]
Settings | mass density, x1 = 0.25 [kg/m3] | mass density, x1 = 0.51 [kg/m3] | mass density, x1 = 0.83 [kg/m3] | surface tension liquid-gas, x1 = 0.25 [mN/m] | surface tension liquid-gas, x1 = 0.51 [mN/m] | surface tension liquid-gas, x1 = 0.83 [mN/m] | viscosity, x1 = 0.25 [mPa·s] | viscosity, x1 = 0.51 [mPa·s] | viscosity, x1 = 0.83 [mPa·s]
873 K | 5201 | 4204 | – | 802.1 | 830.8 | – | 1.917 | 1.633 | –
923 K | 5139 | 4138 | 2720 | 789.4 | 819.6 | 858.7 | 1.791 | 1.542 | 1.356
973 K | 5089 | 4089 | 2680 | 779.3 | 806.5 | 848.1 | 1.696 | 1.448 | 1.271
1023 K | 5011 | 3995 | 2530 | 763.8 | 795.8 | 836.9 | 1.643 | 1.405 | 1.222
